What was measured:
[1] = target: TrkA (histidine-tagged recombinant human TrkA, cytoplasmic domain) (Homo sapiens (Human), UniProt P04629); assay: TrkA ELISA Assay; type: biochemical; settings: Table 1; ELISA, 500 μM ATP; read-out: TrkA Enzyme IC50
Method in brief: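 His-tagged human TrkA cytoplasmic domain phosphorylated poly(Glu,Ala,Tyr 6:3:1) coated at 0.025 mg/mL, with inhibitors present. Phosphotyrosine was detected with HRP-conjugated PY20 antibody (0.2 μg/mL) and TMB, read as absorbance at 450 nm after phosphoric acid stop.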

Human Jak2 kinase domain = Human Jak2 kinase domain (Homo sapiens (Human), UniProt O60674); assay: Jak2 Inhibition Assay (Omnia kinase assay); type: biochemical; settings: Table 1; 500 μM ATP; >1000 nM when >50% inhibition not observed at 1000 nM; read-out: Jak2 Enzyme IC50
Human Jak2 kinase domain, sequence (O60674 808-1132): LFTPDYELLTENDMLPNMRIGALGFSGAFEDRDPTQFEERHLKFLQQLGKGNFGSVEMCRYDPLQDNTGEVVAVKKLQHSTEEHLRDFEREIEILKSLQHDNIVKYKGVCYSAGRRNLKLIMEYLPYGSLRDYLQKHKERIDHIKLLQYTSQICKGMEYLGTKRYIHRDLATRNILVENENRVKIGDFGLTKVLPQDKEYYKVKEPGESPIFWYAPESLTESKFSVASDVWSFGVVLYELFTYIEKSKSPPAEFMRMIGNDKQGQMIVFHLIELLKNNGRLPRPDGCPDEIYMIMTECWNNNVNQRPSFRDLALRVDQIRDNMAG

TrkA (histidine-tagged recombinant human TrkA, cytoplasmic domain), sequence (P04629 440-796): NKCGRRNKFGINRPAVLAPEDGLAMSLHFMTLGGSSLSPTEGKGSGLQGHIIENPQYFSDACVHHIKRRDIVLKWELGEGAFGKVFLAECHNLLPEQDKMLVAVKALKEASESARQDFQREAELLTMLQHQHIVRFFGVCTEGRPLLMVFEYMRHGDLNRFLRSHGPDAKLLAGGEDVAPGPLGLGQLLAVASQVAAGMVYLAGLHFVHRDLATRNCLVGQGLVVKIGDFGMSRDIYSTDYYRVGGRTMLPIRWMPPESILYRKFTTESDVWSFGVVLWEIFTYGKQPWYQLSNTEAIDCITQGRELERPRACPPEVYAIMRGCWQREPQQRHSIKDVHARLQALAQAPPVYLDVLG

| SMILES | IC50 [1] [nM] | IC50 (Human Jak2 kinase domain) [nM] |
| --- | --- | --- |
| O=C(N[C@H]1CCC[C@@H]1O)c1cnn2ccc(N3CCC[C@@H]3c3cncc(F)c3)nc12 [Example 103, 5-((R)-2-(5-fluoropyridin-3-yl)pyrrolidin-1-yl)-N-((1S,2S)-2-hydroxycyclopentyl)pyrazolo[1,5-a]pyrimidine-3-carboxamide] | 87.8 | > 1000 |
| O=C(N[C@H]1CCC[C@H]1O)c1cnn2ccc(N3CCC[C@@H]3c3cncc(F)c3)nc12 [Example 104, 5-((R)-2-(5-fluoropyridin-3-yl)pyrrolidin-1-yl)-N-((1S,2R)-2-hydroxycyclopentyl)pyrazolo[1,5-a]pyrimidine-3-carboxamide] | 83.1 | > 1000 |
| O=C(c1cnn2ccc(N3CCC[C@@H]3c3cncc(F)c3)nc12)N1CC(O)C1 [Example 108, (R)-(5-(2-(5-fluoropyridin-3-yl)pyrrolidin-1-yl)pyrazolo[1,5-a]pyrimidin-3-yl)(3-hydroxyazetidin-1-yl)methanone] | 1190 | > 1000 |
| C[C@H](O)CNC(=O)c1cnn2ccc(N3CCC[C@@H]3c3cncc(F)c3)nc12 [Example 109, 5-((R)-2-(5-fluoropyridin-3-yl)pyrrolidin-1-yl)-N-((S)-2-hydroxypropyl)pyrazolo[1,5-a]pyrimidine-3-carboxamide] | 36.7 | > 1000 |
| C[C@@H](O)CNC(=O)c1cnn2ccc(N3CCC[C@@H]3c3cncc(F)c3)nc12 [Example 110, 5-((R)-2-(5-fluoropyridin-3-yl)pyrrolidin-1-yl)-N-((R)-2-hydroxypropyl)pyrazolo[1,5-a]pyrimidine-3-carboxamide] | 37.2 | > 1000 |
| CC(C)(O)CNC(=O)c1cnn2ccc(N3CCC[C@@H]3c3cncc(F)c3)nc12 [Example 111, (R)-5-(2-(5-fluoropyridin-3-yl)pyrrolidin-1-yl)-N-(2-hydroxy-2-methylpropyl)pyrazolo[1,5-a]pyrimidine-3-carboxamide] | 37.8 | > 1000 |
| NC(=O)c1cnn2ccc(N3CCC[C@@H]3c3cncc(F)c3)nc12 [Example 117, (R)-5-(2-(5-fluoropyridin-3-yl)pyrrolidin-1-yl)pyrazolo[1,5-a]pyrimidine-3-carboxamide] | 45 | > 1000 |
| COCC(O)CNC(=O)c1cnn2ccc(N3CCCC3c3cncc(F)c3)nc12 [Example 119, 5-((R)-2-(5-fluoropyridin-3-yl)pyrrolidin-1-yl)-N-(2-hydroxy-3-methoxypropyl)pyrazolo[1,5-a]pyrimidine-3-carboxamide] | 131 | > 1000 |
| CC(C)[C@@H](CO)NC(=O)c1cnn2ccc(N3CCC[C@@H]3c3cncc(F)c3)nc12 [Example 121, 5-((R)-2-(5-fluoropyridin-3-yl)pyrrolidin-1-yl)-N-((S)-1-hydroxy-3-methylbutan-2-yl)pyrazolo[1,5-a]pyrimidine-3-carboxamide] | 182 | > 1000 |
| CC(C)[C@H](CO)NC(=O)c1cnn2ccc(N3CCC[C@@H]3c3cncc(F)c3)nc12 [Example 122, 5-((R)-2-(5-fluoropyridin-3-yl)pyrrolidin-1-yl)-N-((R)-1-hydroxy-3-methylbutan-2-yl)pyrazolo[1,5-a]pyrimidine-3-carboxamide] | 33.2 | > 1000 |

Molecules with a lower IC50 [1], results first:

| IC50 [1] [nM] | IC50 (Human Jak2 kinase domain) [nM] | SMILES |
| --- | --- | --- |
| 30.9 | > 1000 | O=C(NCCO)c1cnn2ccc(N3CCC[C@@H]3c3cncc(F)c3)nc12 [Example 112, (R)-5-(2-(5-fluoropyridin-3-yl)pyrrolidin-1-yl)-N-(2-hydroxyethyl)pyrazolo[1,5-a]pyrimidine-3-carboxamide] |
| 26.2 | > 1000 | C[C@@H](CO)NC(=O)c1cnn2ccc(N3CCC[C@@H]3c3cncc(F)c3)nc12 [Example 116, 5-((R)-2-(5-fluoropyridin-3-yl)pyrrolidin-1-yl)-N-((S)-1-hydroxypropan-2-yl)pyrazolo[1,5-a]pyrimidine-3-carboxamide] |
| 25.4 | > 1000 | O=C(N[C@H]1CC[C@H](O)C1)c1cnn2ccc(N3CCC[C@@H]3c3cncc(F)c3)nc12 [Example 105, 5-((R)-2-(5-fluoropyridin-3-yl)pyrrolidin-1-yl)-N-((1S,3S)-3-hydroxycyclopentyl)pyrazolo[1,5-a]pyrimidine-3-carboxamide] |
| 22.8 | > 1000 | O=C(NC1CCC[C@@H]1O)c1cnn2ccc(N3CCCC3c3cncc(F)c3)nc12 (stereo partly drawn) [Example 120, 5-((R)-2-(5-fluoropyridin-3-yl)pyrrolidin-1-yl)-N-((trans)-2-hydroxycyclopentyl)pyrazolo[1,5-a]pyrimidine-3-carboxamide] |
| 22.5 | > 1000 | COCC(C)NC(=O)c1cnn2ccc(N3CCCC3c3cncc(F)c3)nc12 [Example 118, 5-((R)-2-(5-fluoropyridin-3-yl)pyrrolidin-1-yl)-N-(1-methoxypropan-2-yl)pyrazolo[1,5-a]pyrimidine-3-carboxamide] |
| 16.4 | > 1000 | O=C(NC1(CO)CC1)c1cnn2ccc(N3CCC[C@@H]3c3cncc(F)c3)nc12 [Example 107, (R)-5-(2-(5-fluoropyridin-3-yl)pyrrolidin-1-yl)-N-(1-(hydroxymethyl)cyclopropyl)pyrazolo[1,5-a]pyrimidine-3-carboxamide] |
| 15.3 | > 1000 | C[C@H](CO)NC(=O)c1cnn2ccc(N3CCC[C@@H]3c3cncc(F)c3)nc12 [Example 115, 5-((R)-2-(5-fluoropyridin-3-yl)pyrrolidin-1-yl)-N-((R)-1-hydroxypropan-2-yl)pyrazolo[1,5-a]pyrimidine-3-carboxamide] |
| 12.8 | > 1000 | CC(C)(CO)CNC(=O)c1cnn2ccc(N3CCC[C@@H]3c3cncc(F)c3)nc12 [Example 125, (R)-5-(2-(5-fluoropyridin-3-yl)pyrrolidin-1-yl)-N-(3-hydroxy-2,2-dimethylpropyl)pyrazolo[1,5-a]pyrimidine-3-carboxamide] |
| 11.7 | > 1000 | O=C(NC1CCC1)c1cnn2ccc(N3CCC[C@@H]3c3cncc(F)c3)nc12 [Example 101, (R)-N-cyclobutyl-5-(2-(5-fluoropyridin-3-yl)pyrrolidin-1-yl)pyrazolo[1,5-a]pyrimidine-3-carboxamide] |
| 6.2 | > 1000 | O=C(NCC(F)CCl)c1cnn2ccc(N3CCC[C@@H]3c3cncc(F)c3)nc12 (stereo partly drawn) [Example 97, N-(3-chloro-2-fluoropropyl)-5-((R)-2-(5-fluoropyridin-3-yl)pyrrolidin-1-yl)pyrazolo[1,5-a]pyrimidine-3-carboxamide] |
| 5.4 | > 1000 | O=C(Nc1ccc(F)cn1)c1cnn2ccc(N3CCC[C@@H]3c3cncc(F)c3)nc12 [Example 95, (R)—N-(5-fluoropyridin-2-yl)-5-(2-(5-fluoropyridin-3-yl)pyrrolidin-1-yl)pyrazolo[1,5-a]pyrimidine-3-carboxamide] |
| 5.2 | > 1000 | CC1(NC(=O)c2cnn3ccc(N4CCC[C@@H]4c4cncc(F)c4)nc23)CCC1 [Example 102, (R)-5-(2-(5-fluoropyridin-3-yl)pyrrolidin-1-yl)-N-(1-methylcyclobutyl)pyrazolo[1,5-a]pyrimidine-3-carboxamide] |
| 3.2 | > 1000 | CC(NC(=O)c1cnn2ccc(N3CCCC3c3cncc(F)c3)nc12)C1CC1 [Example 113, N-(1-cyclopropylethyl)-5-((R)-2-(5-fluoropyridin-3-yl)pyrrolidin-1-yl)pyrazolo[1,5-a]pyrimidine-3-carboxamide] |

Reference: US8791123B2, “Substituted pyrazolo[1,5-a]pyrimidine compounds as Trk kinase inhibitors” (Array Biopharma, Inc., priority 2009, dated 2014)
